In patent US8017350B2, “Glimepiride- and insulin-induced glycosylphosphatidylinositol-specific phospholipase C regulation” (Sanofi-Aventis Deutschland GmbH, priority 2004, dated 2011):

Assays:
rat adipocyte GPI-PLC = experiment: adipocyte GPI-PLC assay (plasma membranes or hc/lcDIGs, AChE substrate, TX-114 partitioning); type: biochemical; conditions: at the highest concentration tested, only
Procedure: (§1) GPI-PLD (rat serum) was assayed according to “Hari et al. (1997) Biochim. Biophys. Acta 1355: 293-302” by incubation with 10 μl of human placental aP solution (100 U/ml in 10 mM Hepes/NaOH, pH 7.0, 150 mM NaCl) in 100 μl of 200 mM Tris/maleate (pH 7.0) and 1% Nonidet P-40 for 10 min at 37° C. and subsequent termination of the reaction by addition of 0.4 ml of ice-cold stop buffer (10 mM Hepes/NaOH, pH 7.0, 150 mM NaCl, 0.1 mM MgCl2 and 0.01 mM zinc acetate). GPI-PLC (T. brucei) was assayed as described in “Mensa-Wilmot et al. (1995) Methods Enzymol. 250: 641-655” by incubation with 5 μl of human placental aP solution (see above) in 50 μl of 50 mM Tris/HCl (pH 8.0), 0.25% Nonidet P-40 and 5 mM EDTA for 30 min at 37° C. and subsequent termination of the reaction by addition of 0.45 ml of stop buffer. PI-PLC (B. cereus) and adipocyte GPI-PLC (5-25 μg plasma membranes or hc/lcDIGs) were assayed by incubation with 10 μl of bovine erythrocyte acetylcholinesterase (AChE) solution (12 U/ml in 10 mM Tris/HCl, pH 7.4, 144 mM NaCl, 0.1% TX-100) in 100 μl of 20 mM Hepes/KOH (pH 7.8), 144 mM NaCl, 0.1% TX-100, 0.2 mM MgCl2 for 1 h at 25° C. and subsequent termination by adding 5 μl of glacial acetic acid and then 0.4 ml of 10 mM Tris/HCl (pH 7.4), 144 mM NaCl. Each reaction mixture was subjected to TX-114 partitioning (see below).
(§2) Pelleted hc/lcDIGs (10-50 μg protein) or (G)PI-PLC reaction mixtures (0.5 ml) were separated into amphiphilic and hydrophilic proteins using partitioning between TX-114-enriched and depleted phases according to “Bordier, C., (1981) J. Biol, Chem. […]” by suspending in 1 ml of ice-cold TX-114 (1%), 25 mM Tris/HCl (pH 7.4), 144 mM NaCl or mixing with 0.5 ml of ice-cold TX-114 (2%), respectively. After incubation for 1 h on ice, the mixture was layered onto a cushion of 0.4 ml of 0.25 M sucrose and 25 mM Tris/HCl (pH 7.4) on ice. Phase separation was induced by warming up to 37° C. and subsequent centrifugation (10,000×g, 1 min). After re-extraction of the lower TX-114-enriched phase, aliquots of the pooled upper TX-114-depleted phase were measured for 5′-Nuc, aP and AChE activity or precipitated (15 polyethylene glycol 4000) for SDS-PAGE analysis.
Table 1: GPI-PLC of hcDIGs from rat adipocytes, GPI-PLC from T. brucei and PI-PLC from B. cereus were incubated with solubilized and partially purified bovine erythrocyte AChE or human placental aP in the absence or presence of increasing concentrations (0.05 μM-1 mM) of the inhibitors indicated under appropriate conditions (see Materials and Methods). Cleavage rate was calculated from the amount of hydrophilic AChE and aP activity recovered with the TX-114-depleted phase upon TX-114 partitioning. […]

GPI-PLC (T. brucei) = target: T1, GPI-PLC (T. brucei) (Trypanosoma brucei brucei, UniProt P09194); experiment: GPI-PLC (T. brucei) assay, human placental aP substrate, TX-114 partitioning; type: biochemical
T1 construct: purchased Oxford Glycosystems (Oxford, UK)
T1 sequence (P09194 whole entry): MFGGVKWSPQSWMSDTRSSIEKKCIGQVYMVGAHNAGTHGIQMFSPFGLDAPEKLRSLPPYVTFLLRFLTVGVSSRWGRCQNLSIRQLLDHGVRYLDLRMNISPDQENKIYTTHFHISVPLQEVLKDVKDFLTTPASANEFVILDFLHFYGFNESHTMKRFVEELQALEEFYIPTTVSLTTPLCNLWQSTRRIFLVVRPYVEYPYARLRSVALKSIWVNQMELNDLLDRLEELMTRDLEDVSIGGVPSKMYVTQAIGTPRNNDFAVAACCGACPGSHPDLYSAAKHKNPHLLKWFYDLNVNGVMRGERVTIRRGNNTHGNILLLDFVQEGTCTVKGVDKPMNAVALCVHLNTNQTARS
Procedure: as §1, §2
(§3) Table 1: GPI-PLC of hcDIGs from rat adipocytes, GPI-PLC from T. brucei and PI-PLC from B. cereus were incubated with solubilized and partially purified bovine erythrocyte AChE or human placental aP in the absence or presence of increasing concentrations (0.05 μM-1 mM) of the inhibitors indicated under appropriate conditions (see Materials and Methods). Cleavage rate was calculated from the amount of hydrophilic AChE and aP activity recovered with the TX-114-depleted phase upon TX-114 partitioning. Means+SD from at least 3 independent incubations with partitioning/enzyme assays in quadruplicate are given. n.a., not applicable.
(§4) Purified (G)PI-PLC/D from B. cereus, rat serum and T. brucei as well as total plasma membranes (PM) and hc/lcDIGs prepared from isolated rat adipocytes were incubated (10 min, 30° C.) with increasing concentrations of GPI-2350 and then assayed for amphiphilic-to-hydrophilic conversion of AChE and aP by TX-114 partitioning (see Materials and Methods). The lipolytic activity was calculated as % of the control reaction in the absence of GPI-2350 (set at 100%). Means+SD of at least 4 independent incubations with AChE and aP activity measurements in triplicate each are given.

PI-PLC (B. cereus) = target: T2, PI-PLC (B. cereus) (Bacillus cereus, UniProt P14262); experiment: PI-PLC (B. cereus) assay, AChE substrate, TX-114 partitioning; type: biochemical; conditions: read-out: inhibition % at 1 mM
T2 construct: purchased SigmalAldrich (Deisenhofen, Germany)
T2 sequence (P14262 32-329 limits assumed): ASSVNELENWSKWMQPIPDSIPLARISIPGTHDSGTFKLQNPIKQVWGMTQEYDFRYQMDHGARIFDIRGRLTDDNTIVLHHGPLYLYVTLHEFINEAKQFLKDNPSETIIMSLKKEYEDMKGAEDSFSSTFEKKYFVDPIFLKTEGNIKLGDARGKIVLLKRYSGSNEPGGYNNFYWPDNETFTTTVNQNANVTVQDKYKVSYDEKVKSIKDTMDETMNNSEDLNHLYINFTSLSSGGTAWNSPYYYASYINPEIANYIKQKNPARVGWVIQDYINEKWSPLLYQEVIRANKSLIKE
Procedure: as §1, §2, §3, §4

isolated rat adipocytes = experiment: glucose transport assay (2-deoxy-D-[3H]glucose); type: cell-based
Procedure: (§5) Glucose transport was determined as described in “Müller, G. et al., (1994) J. Cell Biol. 126: 1267-1276” by incubation of 10,000-20,000 washed adipocytes with 2-deoxy-D[2,6-^3H]glucose at 50 μM final conc. (0.33 μCi/ml) in 50-μl portions for 20 min at 37° C. in the absence or presence of 20 μM cytochalasin B.
(§6) Table 3: Isolated rat adipocytes were incubated in the presence of methyl-β-cyclodextrin (m-β-CD, 10 mM, 50 min), CBDP (300 μM, electroporation, followed by washing and subsequent incubation for 30 min), PIG41 (10 μM, 15 min), sodium orthovanadate (1 mM, 15 min), trypsin (10 μg/ml, 15 min followed by treatment with 0.5 M NaCl and subsequent washing) and N-ethylmaleimide (1 mM, 5 min followed by addition of DTT). After addition of GPI-2350 (50 μM final conc.) to one half of the adipocyte suspension and further incubation (60 min, 37° C.), portions of the cells were assayed for 5′-Nuc activity in the isolated IcDIGs. The increase in 5′-Nuc during the basal incubation was set at 100 arb. units. Other portions of the cells (after 15 min incubation) were assayed for glucose transport which was set at 100 arb. units for the basal incubation. Means+SD of at least 3 independent cell incubations with activity measurements in triplicate each are given.
(§7) FIG. 8: Effect of GPI-2350 on the glimepiride/insulin-induced metabolic activity. Isolated rat adipocytes were treated (5 min, 37° C.) without or with GPI-2350 (Panel A, 50 μM; Panel B, increasing conc.; Panel C, 5 μM, 50 μM) and then incubated (15 min, 37° C.) in the absence or presence of insulin (Ins, 10 nM) or glimepiride (Gli, 20 μM or increasing conc.) as indicated. The adipocytes were then assayed for glucose transport and isoproterenol-induced lipolysis. The activity is given relative to the absence of GPI-2350 in the control reaction (Panels A, basal) or in the insulin- and glimepiride-stimulated state (Panels B and C, set at 100). Means+SD of at least 5 independent cell incubations with activity measurements in triplicate each are given.

[1] = system: 5′-Nuc in isolated rat adipocytes; experiment: 5′-Nuc translocation to lcDIGs induced by insulin-mimetic stimuli; type: cell-based
Procedure: as §6

[2] = system: patients with type 2 diabetes; conditions: cited from earlier work
[3] = system: glucose transport, rat adipocytes; experiment: Glucose transport in rat adipocytes; type: cell-based; conditions: for Glucose Transport: basal set at 100; for glucose transport (in words): insulin-mimetic stimuli
Procedure: as §5
Subsequently, we studied whether the differential effects of GPI-PLC inhibition on IRS-1 tyrosine phosphorylation in response to insulin and glimepiride is reflected in their metabolic activity in insulin target cells. For this, isolated rat adipocytes were pretreated with GPI-2350 prior to challenge with either stimulus, and then assayed for glucose transport and isoproterenol-induced lipolysis (FIG. 8). […] These differential effects of GPI-PLC inhibition were confirmed by analysis of the effect of GPI-2350 on the inhibition of isoproterenol-induced lipolysis by glimepiride and insulin when measured as release of NBD-FA instead of glycerol from rat adipocytes prelabeled with this fluorescent fatty acid derivative (FIG. 9).
as §6, §7

5'-Nuc, rat adipocytes = experiment: 5'-Nuc translocation to lcDIGs induced by insulin-mimetic stimuli; type: cell-based; conditions: for Increase in 5′-Nuc at lcDIGs: basal set at 100
Description: Finally, the involvement was investigated of the GPI-PLC in signaling pathways of insulin-mimetic stimuli other than glimepiride, which are either dependent on or independent of the redistribution of GPI-proteins within DIGs. […] This is in agreement with their modes of action, the well-known inhibition of insulin receptor and IRS-1 dephosphorylation by the tyrosine phosphatase inhibitor, vanadate and the direct stimulation of pp59^Lyn and IRS-1 tyrosine phosphorylation by the CBDP.
as §6

[4] = +GPI-2350 (50 μM final conc., 15 min)
[5] = +GPI-2350 (50 μM final conc., 60 min)

For `CCCCCCCCCCCCP(=O)(O)O[C@H]1[C@H](O)[C@@H](O)[C@H](O)[C@@H](O)[C@@H]1F` [GPI-1793, 2-deoxy-2-fluoro-scyllo-inositol-1-O-dodecyl-phosphonic acid], the “effect on the adipocyte GPI-PLC” value (rat adipocyte GPI-PLC) was “moderate”.
With `CCCCCCCCCCCCP(=O)(OC)O[C@@H]1[C@H](O)[C@H](O)[C@@H](O)[C@H](O)[C@H]1O` (stereo partly shown) [GPI-2349, myo-inositol-1-O-dodecylphosphonic acid methylester] the “effect on the adipocyte GPI-PLC” value (rat adipocyte GPI-PLC) was “very moderate”, the IC50 (GPI-PLC (T. brucei); IC50, Table 1, inhibitor 0.05 μM-1 mM) was 310 to 390 µM and the inhibition at 1000 µM (GPI-PLC (T. brucei); read-out: inhibition % at 1 mM) was 66%. The inhibition at 1000 µM (PI-PLC (B. cereus)) was 24%.
In the case of `CCN1C(=O)C=CC1=O` [N-ethylmaleimide], the “Glucose Transport (basal set at 100 arb. units)” value (isolated rat adipocytes; [4]) is reported as 288 + 40 arb. units, the “Glucose Transport (basal set at 100 arb. units)” value (isolated rat adipocytes; −GPI-2350) is reported as 308 + 33 arb. units and the “Increase in 5′-Nuc at lcDIGs (basal set at 100 arb. units)” value (“Increase … (basal set at 100 arb. units)” for short) [1, 5] is reported as 319 + 52 arb. units. The “Increase … (basal set at 100 arb. units)” value ([1]; −GPI-2350) was 292 + 60 arb. units.
In the case of `CCC1=C(C)CN(C(=O)NCCc2ccc(S(=O)(=O)NC(=O)N[C@H]3CC[C@H](C)CC3)cc2)C1=O` [glimepiride], the effects vs. gliclazide ([2]; 14-week study) is given as “no differences between their effects”, the “rate of blood glucose reduction vs. glipizide” value ([2]; first few weeks of treatment) is given as “more rapidly than glipizide” and the “effects on cardiovascular variables” value ([2]; human, in vivo) is given as “fewer and less severe effects on cardiovascular variables than glibenclamide”. For the same compound, the “pharmacokinetics in elderly, renal or liver disease” value ([2]; human, in vivo) was “mainly unaltered” and the “efficacy of glimepiride plus insulin” value ([2]; secondary sulphonylurea failure, fasting glucose target ≦7.8 mmol/L) was “as effective as insulin plus placebo”.
With `[Na+].[Na+].[Na+].[O]=[V]([O-])([O-])[O-]` [sodium orthovanadate] the “Glucose Transport” value ([3]; +GPI-2350 (50 μM)) was 673 + 45 arb. units, the “glucose transport (in words)” value [3] was “stimulated glucose transport” and the “Glucose Transport” value ([3]; −GPI-2350) was 707 + 51 arb. units. For the same compound, the “Glucose Transport (basal set at 100 arb. units)” value (isolated rat adipocytes; [4]) was 673 + 45 arb. units, the “Glucose Transport (basal set at 100 arb. units)” value (isolated rat adipocytes; −GPI-2350) was 707 + 51 arb. units and the “Increase … (basal set at 100 arb. units)” value [1, 5] was 105 + 34 arb. units. For the same compound, the “Increase … (basal set at 100 arb. units)” value ([1]; −GPI-2350) was 93 + 38 arb. units, the “5'-Nuc at lcDIGs (in words)” value (5'-Nuc, rat adipocytes) was “without concomitant induction of 5′-Nuc translocation to IcDIGs” and the “Increase in 5′-Nuc at lcDIGs” value (5'-Nuc, rat adipocytes; +GPI-2350 (50 μM)) was 105 + 34 arb. units. The “Increase in 5′-Nuc at lcDIGs” value (5'-Nuc, rat adipocytes; −GPI-2350) was 93 + 38 arb. units.
With “methyl-β-cyclodextrin [m-β-CD] [listing 1 of 2 here]” the “Glucose Transport (basal set at 100 arb. units)” value (isolated rat adipocytes; [4]) was 249 + 18 arb. units, the “Glucose Transport (basal set at 100 arb. units)” value (isolated rat adipocytes; −GPI-2350) was 289 + 13 arb. units and the “Increase … (basal set at 100 arb. units)” value [1, 5] was 539 + 104 arb. units. The “Increase … (basal set at 100 arb. units)” value ([1]; −GPI-2350) was 595 + 128 arb. units.
In the case of “methyl-β-cyclodextrin [m-β-CD] [listing 2 of 2 here]”, the “Glucose Transport” value ([3]; +GPI-2350 (50 μM)) is reported as 249 + 18 arb. units, the “glucose transport (in words)” value [3] is reported as “glucose transport activation” and the “Glucose Transport” value ([3]; −GPI-2350) is reported as 289 + 13 arb. units. The “5'-Nuc at lcDIGs (in words)” value (5'-Nuc, rat adipocytes) was “pronounced increases”, the “Increase in 5′-Nuc at lcDIGs” value (5'-Nuc, rat adipocytes; +GPI-2350 (50 μM)) was 539 + 104 arb. units and the “Increase in 5′-Nuc at lcDIGs” value (5'-Nuc, rat adipocytes; −GPI-2350) was 595 + 128 arb. units.
